# In patent US12171909B2, “Implants having a drug load of an oxysterol and methods of use” (WARSAW ORTHOPEDIC, INC., priority 2015, dated 2024):
# Assays:
# [1] = test system: rat two-level spine model; assay: posterolateral spinal fusion in a rat two-level spine model (radiographs, manual palpation); assay type: in vivo; conditions: for spinal fusion (figure legend): bone growth at 4 and 8 weeks, fusion confirmed by manual palpation at 8 weeks; for bridging bone on radiographs: 4-week and 8-week timepoints, rat L3-L5; for fusion observed in rat spines (manual palpation): matrix of Oxy133, collagen and ceramic wetted with sterile water, two implants bilaterally in posterolateral space, 8-week sacrifice
# Experimental: FIG. 6 illustrates uses of a formulation of compression resistant implants having 20 mg of Oxy133 on each side of the implant, in accordance with the implants described herein. […] Bone growth in rat test subjects can be seen after 4 and 8 weeks post-implantation, and fusion was confirmed by manual palpation of the spine segments at 8 weeks. […] A dry composition of a matrix containing Oxy133, collagen and ceramic as described herein was prepared and wetted with sterile water to be implanted in rat spines as shown in FIG. 6. The wetted matrix was cut in half with a razor blade to yield two halves. The two implants were molded into cylindrical shapes prior to insertion and were positioned bilaterally in the posterolateral space of each test subject. Each implant contained 20 mg Oxy133. Radiographs were taken roughly 10 minutes after the procedure, 4 weeks after the procedure, and 8 weeks after the procedure. […] Fusion was tested at 8-week sacrifice by manual palpation. […] A dry composition of a matrix containing Oxy133, collagen and ceramic as described herein was prepared and wetted with sterile water to be implanted in rat spines as shown in FIG. 6. The wetted matrix was cut in half with a razor blade to yield two halves. The two implants were molded into cylindrical shapes prior to insertion and were positioned bilaterally in the posterolateral space of each test subject. Each implant contained […] Oxy133. Radiographs were taken roughly 10 minutes after the procedure, 4 weeks after the procedure, and 8 weeks after the procedure. […] Fusion was tested at 8-week sacrifice by manual palpation.
# solubility in water = assay type: physicochemical
# Excerpt: The Oxy133 can be solubilized in a non-aqueous solvent, such as for example, ethanol and mixed into a solution or suspension. In some embodiments, the Oxy 133 can be filtered by passing the Oxy 133 and solvent through a filter (e.g., 0.22 microns). This will remove bacteria and other larger-size particulates out of the composition. The Oxy 133 used in the composition can be micronized before it is mixed with solvents and other excipients. In various embodiments, the particle size of the Oxy 133 can range from about 1 micron to 250 microns. In some embodiments, the Oxy 133 can have a particle size of from about 5 microns to about 100 microns or from about 20 to 50 microns. The Oxy 133 in the solution or suspension can be added to a slurry of biodegradable polymer and/or the ceramic particles, mixed and, then optionally dried.
smiles,measurement,setting,value
"CCCCCC[C@](C)(O)[C@H]1CC[C@H]2[C@@H]3C[C@H](O)[C@H]4C[C@@H](O)CC[C@]4(C)[C@H]3CC[C@@]21C [Oxy133, (3S,5S,6S,8R,9S,10R,13S,14S,17S)-17-((S)-2-hydroxyoctan-2-yl)-10,13-dimethylhexadecahydro-1H-cyclopenta [a]phenanthrene-3,6-diol]",spinal fusion (figure legend),"[1]; 20 mg of Oxy133 on each side, FIG. 6",yielded spinal fusion
same,spinal fusion (figure legend),"[1]; 125 mg of Oxy133 on each side, FIG. 7",yielded spinal fusion
same,bridging bone on radiographs,[1]; each implant 20 mg Oxy133,promoted bridging bone across the transverse processes of L3-L5
same,bridging bone on radiographs,[1]; each implant 125 mg Oxy133,promoted bridging bone across the transverse processes of L3-L5
same,fusion observed in rat spines (manual palpation),[1]; each implant 20 mg Oxy133,100%
same,fusion observed in rat spines (manual palpation),[1]; each implant 125 mg Oxy133,100%
same,solubility in water,solubility in water,only slightly soluble or insoluble in water
